The assay deals with mouse peritoneal macrophages. The experiment in a line: Foam cell formation in peritoneal macrophages isolated from exposed C57BL/6 mice. Particulars: 200 mg/kg BW for 7 d, p<0.05. The format is in vivo. As for the experimental part: RAW264.7 cells or mouse peritoneal macrophages were plated in 24-well plates at 6.0×10^4 cells/well and grown overnight. Then the medium was removed and fresh DMEM-F12 containing 10% FBS, 20μg/mL oxidized low-density lipoprotein (ox-LDL), and 0.1% DMSO (control; n=3 ) or TPHP at the concentration of 1–20,000 nM ( n=3 per group) was added. The cells were washed with PBS, followed by fixing in 4% paraformaldehyde for 30 min and staining with boron-dipyrromethene (BODIPY) 493/503 ( 20μg/mL ) and 4′,6-diamidino-2-phenylindole (DAPI; 100 ng/mL ) for 10 min. Foam cell formation was analyzed by high-content microscopy using ImageXpress® Micro XL (Molecular Devices). From each well, 25 image fields were scanned, and MetaXpress® (Molecular Devices) was used to quantify compartmentalized changes in the fluorescence of each cell.
All experiments related to animals were approved by the institutional animal care and use committee of Peking University and followed the guidelines for animal experiments of the university as well as for experimental animals in China. […] Body weight (BW) was measured every week during the dosing period. […] Considering that this study assessed the effects of short-term exposure to TPHP, whereas humans are exposed to TPHP over a lifelong period, the present study used exposure doses that were higher than that of human exposure from house dust. […]

SMILES strings stand for the structures.

Regarding `O=P(Oc1ccccc1)(Oc1ccccc1)Oc1ccccc1` [TPHP, triphenyl phosphate], the “Foam cell staining in peritoneal macrophages relative to control” value is given as 2.88±0.95 fold.

(Values after PMC6927504, “Screening of House Dust from Chinese Homes for Chemicals with Liver X Receptors Binding Activities and Characterization of Atherosclerotic Activity Using an in Vitro Macrophage Cell Line and ApoE^−/− Mice” (Environmental Health Perspectives, 2019).)
